Laboratory results from patent US7964598B2 (The J. David Gladstone Institutes, priority 1995, dated 2011).
Values joined by “and” are separate entries in the source; they are usually repeats but may differ in a detail not shown here. Equal entries are not always repeated. “Also recorded” adds a separate entry of the source.

What was measured:
apoE4 = target: T1, apoE4 (Homo sapiens, UniProt P02649, C130R); assay: Emulsion binding assay for domain interaction, apoE4
T1 construct: made in house
Method: (§1) Preparation of emulsion particles. Triolein (160 mg) and L-alpha-Phosphatidylcholine (40 mg) are combined and dried under nitrogen. After the addition of 8 mls of buffer (10 mM Tris, 100 mM KCl, 1 mM EDTA, pH 8.0), the mixture is sonicated in a water bath to obtain a heterogeneous mix of emulsion particles. The particles are harvested by ultracentrifugation (TLA 100.2 rotor, 30,000 rpm for 30 minutes) and the subsequent lipid cake is removed by tube slicing and resuspended in 100 μt 20 mM Phosphate Buffer (PB). Triolein and phospholipid content are measured and total emulsion particle concentration is determined.
(§2) Radiolabelling Freshly denatured and renatured Apolipoprotein E3 and E4 are radiolabelled using Bolton-Hunter Reagent [^125I] (ICN). Specific Activity is determined using Lowry method and Gamma 8000 counter.
(§3) Binding Affinity Assay. […] In glass tubes, 25 μg of protein (with iodinated tracer) was reduced with 1% β-mercaptoethanol. Two hundred and fifty μg of emulsion particles and 2.5 μl of compound (10 mM stock) were added and the final mixture was brought up to 250 μl with 20 mM phosphate buffer (PB). The reaction mixture was then incubated in a 37° C. water bath for 2 hours before being transferred to 1.5 ml ultracentrifuge tubes. Finally, 50 μl of 60% sucrose was mixed with the sample and 400 μl 20 mM PB was carefully layered on top. Using a TLA 100.2 rotor, the tube was spun at 30,000 rpm for 30 minutes and subsequently cut to separate the floating emulsion particle layer from the free protein at the bottom of the tube. These fractions were then combined with the respective half of the actual tube and counted using a Gamma-8000. […] Protein-only assays yielded 94.5-96.6% of protein accumulated in the bottom portion of the tube. In emulsion particle-only assays, 94% of emulsion particles accumulated in the top portion of the tube.
(§4) Preparation of Emulsion Particles and VLDL Binding Affinity Assay. VLDL-like emulsion particles were prepared using triolein (160 mg) and L-alpha-phosphatidylcholine (40 mg), as described. Dong and Weisgraber (1996) supra; and Dong et al. (1994) J. Biol. Chem. 269:22358-22365.

apoE3 = target: T2, apoE3 (Homo sapiens, UniProt P02649); assay: Emulsion binding assay, apoE3
T2 construct: made in house
Method: as §1, §2, §3, §4

YFP-apoE4-CFP = target: T3, YFP-apoE4-CFP (Homo sapiens, UniProt P02649, C130R); assay: Cell-based FRET assay, YFP-apoE4-CFP; conditions: 5-20 μM
T3 construct: vector signal peptide (pFLAG-CMV3) (N); FLAG (N); expressed in transfected cells
Excerpt: (§5) Xu et al. (2004) J. Biol. Chem. 279:25511-25516. FRET—the non-radioactive transfer of photon energy from an excited fluorophore (donor) to another fluorophore (acceptor)—occurs only when the donor and acceptor are in close proximity (<100 Å). Thus, this approach can be used to measure nanometer scale distances.
(§6) Xu et al. (2004) J. Biol. Chem. 279:25511-25516. The constructs are depicted schematically in FIG. 29.
(§7) Since the emission spectrum of CFP (460-520 nm) overlaps with the excitation spectrum of YFP (480-520 nm), FLEXstation (Molecular Devices) can be used to measure FRET in living cells expressing YFP-apoE3-CFP or YFP-apoE4-CFP in a high throughput manner. […] Thus, the ratio of FRET to CFP emission in cells expressing YFP-apoE4-CFP is much higher than that in those expressing YFP-apoE3-CFP (FIG. 31). […] Since the FLEXstation can read FRET in both cells and the culture media treated without or with various small molecules, this assay allows one to know whether a small molecule affects apoE4 domain interaction only in the medium (“medium FRET”) or also inside the cell (“intracellular FRET”). In addition, after measurement of the intracellular FRET, the cells can be incubated further with MTT to determine the cytotoxicity of the compound. Thus, the cell-based FRET assay can simultaneously provide three sets of data-intracellular FRET, medium FRET, and cytotoxicity.
(§8) Quantifying FRET in Transfected Neuro-2a Cells—Stably transfected Neuro-2a cells expressing YFP-apoE3-CFP or YFP-apoE4-CFP at similar levels were selected by fluorescence activated cell sorter (FACS). YFP and CFP images of transfected cells were acquired with the Meta Detector, and their fluorescence intensities were analyzed with the mounted computer. The FRET signal was calculated as the ratio of YFP to CFP fluorescence intensity under CFP excitation. For each YFP-apoE-CFP construct, the FRET signal was measured in at least 12 cells from different fields.
(§9) Quantifying FRET in the Culture Medium—Neuro-2a cells stably expressing YFP-apoE3-CFP or YFP-apoE4-CFP and wildtype cells were grown in T175 flasks to 90% confluence and incubated with serum-free minimum essential medium containing N2 supplement for 24 h. The conditioned medium (20 ml/flask) was concentrated about 20-fold with Centriplus-YM-10 concentrators (Amicon, Bedford, Mass.), dialyzed against PBS, illuminated at the CFP excitation wavelength (430 nm), and scanned for emission spectrum. The FRET signal was calculated as the ratio of emission at 525 nm (YFP) to that at 475 nm (CFP). Conditioned medium from cells expressing apoE3-CFP or apoE4-CFP was used to determine baseline fluorescence in the absence of FRET.

YFP-apoE3-CFP = target: T4, YFP-apoE3-CFP (Homo sapiens, UniProt P02649); assay: Cell-based FRET assay, YFP-apoE3-CFP
T4 construct: vector signal peptide (pFLAG-CMV3) (N); FLAG (N); expressed in transfected cells
Excerpt: as §5, §6, §7, §8, §9

YFP-apoE4-CFP cells = assay: MTT cytotoxicity assay; format: cell-based, mouse; conditions: 5-10 μM
Excerpt: as §7

[1] = follow-up assay, second E4 control
[2] = initial assay, 2.5 μl of compound (10 mM stock) in 250 μl, 37° C. 2 hours

T2 sequence (P02649 19-317): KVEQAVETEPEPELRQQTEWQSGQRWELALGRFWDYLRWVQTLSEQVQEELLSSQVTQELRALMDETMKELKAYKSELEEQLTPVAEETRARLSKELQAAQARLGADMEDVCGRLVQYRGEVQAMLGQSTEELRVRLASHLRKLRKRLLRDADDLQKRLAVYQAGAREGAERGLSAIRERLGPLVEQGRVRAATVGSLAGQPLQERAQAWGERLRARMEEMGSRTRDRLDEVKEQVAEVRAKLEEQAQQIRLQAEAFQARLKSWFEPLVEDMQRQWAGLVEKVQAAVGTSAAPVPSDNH
T1 sequence (P02649 19-317 C130R): as the sequence (P02649 19-317) above, with C112R counted along it
T4 sequence (P02649 19-317): as the sequence (P02649 19-317) above
T3 sequence (P02649 19-317 C130R): as the sequence (P02649 19-317) above, with C112R counted along it

In the case of `O=S(=O)([O-])c1ccc2c(c1)c(Nc1ccc(S(=O)(=O)O)cc1)cc1c2nc2ccccc2[n+]1-c1ccccc1` [GIND-25, azocarmine-G], the “apoE4 domain interaction / binding of apoE4 to VLDL-like emulsion particles” value (apoE4) is reported as “capable of blocking apoE4 domain interaction; also recorded: inhibited significantly”, the “E4 + cpd n = 3, % bound” value (apoE4; follow-up assay) is reported as 57% and the “E4 + cpd n = 3, % free” value (apoE4; follow-up assay) is reported as 43%. For the same compound, the “E4 control, % bound” value (apoE4; [1]) was 46%, the “E4 control, % free” value (apoE4; [1]) was 54% and the “E4 + cpd, % bound” value (apoE4; [2]) was 12% and 15%. For the same compound, the “E4 + cpd, % free” value (apoE4; [2]) was 88% and 85%, the “binding of apoE3 to the emulsion particles” value (apoE3) was “no significant effect” and the “E3 + compound, % bound” value (apoE3; follow-up assay) was 30%. For the same compound, the “E3 + compound, % free” value (apoE3; follow-up assay) was 70%, the “ratio of FRET to CFP emission in the cells expressing YFP-apoE4-CFP” value (YFP-apoE4-CFP; intracellular) was “decreased significantly” and the “ratio of FRET to CFP emission in media of YFP-apoE4-CFP cells” value (YFP-apoE4-CFP; medium) was “decreased significantly”. For the same compound, the “ratio of FRET to CFP emission in cells expressing YFP-apoE3-CFP” value (YFP-apoE3-CFP; intracellular) was “none of these compounds altered significantly”, the “ratio of FRET to CFP emission in media of YFP-apoE3-CFP cells” value (YFP-apoE3-CFP; medium) was “none of these compounds altered significantly” and the “cytotoxicity (MTT assay)” value (YFP-apoE4-CFP cells) was “did not cause significant cytotoxicity”.
